Here are results for five compounds from patent US8809304B2, “Amine compound and use thereof for medical purposes” (Mitsubishi Tanabe Pharma Corporation, priority 2005, dated 2014).

Structures can show the parent of a compound that is named as a salt.

One data set relates to peripheral blood lymphocyte count. Kind of data set: Evaluation of peripheral blood lymphocyte count-decreasing effect in mice. Type of data set: in vivo. As to conditions: male BALB/cAnNCrj mice, intraperitoneally administered, 24 hr after administration.
For `CCCCCCCOc1ccc(CCC(N)(CO)CO)cc1C.Cl` [comparison compound 1-7, 2-amino-2-[2-(4-heptyloxy-3-methylphenyl)ethyl]propane-1,3-diol Hydrochloride, reference compound], the “mouse peripheral blood lymphocyte count-decreasing effect, ED50 value (dose necessary for 50% reduction of the lymphocyte count of vehicle group as 100%)” value was found to be 0.64 mg/kg body weight. Still for that read-out and setting: as for `CCCCCCCOc1ccc(CCC(C)(N)CO)cc1C(F)(F)F.Cl` (stereo not drawn) [compound 13-6, 2-amino-4-(4-heptyloxy-3-trifluoromethylphenyl)-2-methylbutanol Hydrochloride], the figure is 0.02 mg/kg body weight; as for `CCCCCCCOc1ccc(/C=C/C(N)(CO)CO)cc1C(F)(F)F` [compound 28-6, (E)-2-amino-2-[2-(4-heptyloxy-3-trifluoromethylphenyl)vinyl]propane-1,3-diol Hydrochloride], 0.03 mg/kg body weight. Same read-out and setting: as for `CCCCCCCOc1ccc(CCC(N)(CO)CO)cc1C(F)(F)F.Cl` [compound 1-3, 2-amino-2-[2-(4-heptyloxy-3-trifluoromethylphenyl)ethyl]propane-1,3-diol Hydrochloride], the figure is 0.04 mg/kg body weight; as for `CCCCCCCOc1ccc(CC[C@@](C)(N)CO)cc1C(F)(F)F.Cl` [compound 15-3, (R)-2-amino-4-(4-heptyloxy-3-trifluoromethylphenyl)-2-methylbutanol Hydrochloride], 0.02 mg/kg body weight.

Test system in a further data set: not listed separately
Kind of data set: Effect on heart rate in rat telemetry. Type of data set: in vivo, Sprague-Dawley (IGS) rats. As to conditions: orally administered, up to the dose of 30 mg/kg body weight, measured from 24 hr before to 72 hr after administration. The procedure:
Effect on Heart Rate in Rat Telemetry
Male Sprague-Dawley (IGS) rats were anesthetized by intraperitoneal administration of Nembutal (manufactured by DAINIPPON PHARMACEUTICAL CO., LTD.), a pressure sensor connected to a telemetry transmitter (TL11M2-C50-PTX, manufactured by Data Sciences International) was inserted into the abdominal artery, and the transmitter was subcutaneously dwelled in the abdomen. The data of blood pressure and heart rate were recorded by an analysis soft (Dataquest A.R.T., Data Science) via a receiver (RPC-1, manufactured by Data Sciences International). When 10 days to 2 weeks elapsed from the surgery, recovery of heart rate circadian rhythm was confirmed, and the rats were subjected to the experiment. The compound of the present invention was suspended in 0.5% hydroxypropylmethylcellulose (manufactured by Shin-Etsu Chemical Co., Ltd.) and orally administered. The heart rate was measured from 24 hr before the administration to 72 hr after the administration.
As for `CCCCCCCOc1ccc(CCC(N)(CO)CO)cc1C(F)(F)F.Cl` [compound 1-3, 2-amino-2-[2-(4-heptyloxy-3-trifluoromethylphenyl)ethyl]propane-1,3-diol Hydrochloride], the “effect on heart rate of the rat” value is on record as “did not affect the heart rate”.
